Measured values: ChEMBL document CHEMBL3885861, “Open TG-GATES”

Organism: Rattus norvegicus
Assay: Open TG-GATES - Regimen: Single
Type: toxicity, organism-based, Sprague-Dawley
Parameters: regimen Single, gender Male, age 6 weeks
Conditions: in vivo, po, route gavage; for APTT / Bas / Eos / Fbg / Hb / Ht / Lym / MCH / MCHC / MCV / Mono / Neu / PT / Plat / RBC / Ret / WBC: tissue Blood; for KIDNEY_L / KIDNEY_R / KIDNEY_TOTAL: tissue Kidney; for LIVER: tissue Liver; for A/G / ALP / ALT / AST / BUN / CRE / Ca / Cl / DBIL / GLC / IP / K / LDH / Na / PL / RALB / TBIL / TC / TG / TP / gamma-GTP: tissue Plasma
[1] = 0 mg/kg, 3 h, dose level Control
[2] = 0 mg/kg, 6 h, dose level Control
[3] = 0 mg/kg, 9 h, dose level Control
[4] = 0 mg/kg, 24 h, dose level Control
[5] = 100 mg/kg, 24 h, dose level Low

## CC[C@@H](CO)NCCN[C@@H](CC)CO [ETHAMBUTOL]
[1]
  TERMINAL_BW: 227 g
  APTT: 21.4 s
  Bas: 0%
  Eos: 0.8%
  Fbg: 319 mg/dL
  Hb: 13.3 g/dL
  Ht: 39.5%
  Lym: 83.8%
  MCH: 22.3 pg
  MCHC: 33.7%
  MCV: 66.2 fL
  Mono: 2%
  Neu: 12.2%
  PT: 15.9 s
  Plat: 118.8 x10_4/uL
  RBC: 597.6 x10_4/ul
  Ret: 8.3%
  WBC: 97.7 x10_2/uL
  KIDNEY_L: 1 g
  KIDNEY_R: 1 g
  KIDNEY_TOTAL: 2.1 g
  LIVER: 11.4 g
  A/G: 1.2
  ALP: 1599 IU/L
  ALT: 42.2 IU/L
  AST: 73.6 IU/L
  BUN: 14.2 mg/dL
  CRE: 0.2 mg/dL
  Ca: 10.4 mg/dL
  Cl: 106.6 meq/L
  DBIL: 0 mg/dL
  GLC: 192.4 mg/dL
  IP: 8.7 mg/dL
  K: 4.1 meq/L
  LDH: 171.6 IU/L
  Na: 144.2 meq/L
  PL: 137.2 mg/dL
  RALB: 3 g/dL
  TBIL: 0.01 mg/dL
  TC: 75.6 mg/dL
  TG: 63.8 mg/dL
  TP: 5.3 g/dL
  gamma-GTP: 1.6 IU/L
[2]
  TERMINAL_BW: 224 g
  APTT: 22.2 s
  Bas: 0%
  Eos: 0.8%
  Fbg: 301.2 mg/dL
  Hb: 13.6 g/dL
  Ht: 39.9%
  Lym: 82.6%
  MCH: 21.7 pg
  MCHC: 34.1%
  MCV: 63.8 fL
  Mono: 2.4%
  Neu: 13%
  PT: 15.6 s
  Plat: 122.5 x10_4/uL
  RBC: 624.8 x10_4/ul
  Ret: 7.5%
  WBC: 117.8 x10_2/uL
  KIDNEY_L: 1 g
  KIDNEY_R: 1 g
  KIDNEY_TOTAL: 2 g
  LIVER: 10 g
  A/G: 1.2
  ALP: 1271 IU/L
  ALT: 35 IU/L
  AST: 66.2 IU/L
  BUN: 11.2 mg/dL
  CRE: 0.2 mg/dL
  Ca: 10.3 mg/dL
  Cl: 105.8 meq/L
  DBIL: 0 mg/dL
  GLC: 200.4 mg/dL
  IP: 9.2 mg/dL
  K: 4.4 meq/L
  LDH: 176.2 IU/L
  Na: 141.8 meq/L
  PL: 134.8 mg/dL
  RALB: 2.9 g/dL
  TBIL: 0.02 mg/dL
  TC: 72 mg/dL
  TG: 82.8 mg/dL
  TP: 5.4 g/dL
  gamma-GTP: 1.6 IU/L
[3]
  TERMINAL_BW: 220 g
  APTT: 22.6 s
  Bas: 0%
  Eos: 0.6%
  Fbg: 288 mg/dL
  Hb: 13.4 g/dL
  Ht: 39.5%
  Lym: 82.6%
  MCH: 21.3 pg
  MCHC: 34%
  MCV: 62.7 fL
  Mono: 2.4%
  Neu: 13.2%
  PT: 16.5 s
  Plat: 116 x10_4/uL
  RBC: 632 x10_4/ul
  Ret: 6.9%
  WBC: 93.6 x10_2/uL
  KIDNEY_L: 1 g
  KIDNEY_R: 1 g
  KIDNEY_TOTAL: 2 g
  LIVER: 9.3 g
  A/G: 1.2
  ALP: 1394.2 IU/L
  ALT: 37.4 IU/L
  AST: 69.8 IU/L
  BUN: 10.6 mg/dL
  CRE: 0.2 mg/dL
  Ca: 10.1 mg/dL
  Cl: 107.8 meq/L
  DBIL: 0.002 mg/dL
  GLC: 180.2 mg/dL
  IP: 9 mg/dL
  K: 4.1 meq/L
  LDH: 136.8 IU/L
  Na: 142 meq/L
  PL: 118.2 mg/dL
  RALB: 3 g/dL
  TBIL: 0.024 mg/dL
  TC: 68.4 mg/dL
  TG: 37.4 mg/dL
  TP: 5.6 g/dL
  gamma-GTP: 1.2 IU/L
[4]
  TERMINAL_BW: 232.7 g
  APTT: 22.2 s
  Bas: 0%
  Eos: 0.8%
  Fbg: 311.8 mg/dL
  Hb: 13.9 g/dL
  Ht: 39.5%
  Lym: 82.4%
  MCH: 22.5 pg
  MCHC: 35.1%
  MCV: 64 fL
  Mono: 2.4%
  Neu: 13.4%
  PT: 16.4 s
  Plat: 115.4 x10_4/uL
  RBC: 618.2 x10_4/ul
  Ret: 6.9%
  WBC: 99.5 x10_2/uL
  KIDNEY_L: 1 g
  KIDNEY_R: 1 g
  KIDNEY_TOTAL: 2 g
  LIVER: 10.8 g
  A/G: 1.1
  ALP: 1625.6 IU/L
  ALT: 47.6 IU/L
  AST: 73 IU/L
  BUN: 17.2 mg/dL
  CRE: 0.2 mg/dL
  Ca: 10.6 mg/dL
  Cl: 106.8 meq/L
  DBIL: 0 mg/dL
  GLC: 199 mg/dL
  IP: 8.1 mg/dL
  K: 4.1 meq/L
  LDH: 176.8 IU/L
  Na: 142.4 meq/L
  PL: 147.2 mg/dL
  RALB: 3 g/dL
  TBIL: 0.006 mg/dL
  TC: 73.4 mg/dL
  TG: 94.6 mg/dL
  TP: 5.7 g/dL
  gamma-GTP: 1.8 IU/L
100 mg/kg, 3 h, dose level Low
  TERMINAL_BW: 224 g
  APTT: 21.6 s
  Bas: 0%
  Eos: 0.8%
  Fbg: 308 mg/dL
  Hb: 13.7 g/dL
  Ht: 40%
  Lym: 80.4%
  MCH: 21.9 pg
  MCHC: 34.1%
  MCV: 64.2 fL
  Mono: 2.4%
  Neu: 14.8%
  PT: 15.6 s
  Plat: 118 x10_4/uL
  RBC: 623.8 x10_4/ul
  Ret: 8.1%
  WBC: 87.8 x10_2/uL
  KIDNEY_L: 1 g
  KIDNEY_R: 1 g
  KIDNEY_TOTAL: 2 g
  LIVER: 10.9 g
  A/G: 1.2
  ALP: 1530.6 IU/L
  ALT: 41 IU/L
  AST: 73 IU/L
  BUN: 12.6 mg/dL
  CRE: 0.1 mg/dL
  Ca: 10.4 mg/dL
  Cl: 107.4 meq/L
  DBIL: 0 mg/dL
  GLC: 189.8 mg/dL
  IP: 8.6 mg/dL
  K: 4 meq/L
  LDH: 172.8 IU/L
  Na: 142.2 meq/L
  PL: 134.2 mg/dL
  RALB: 3 g/dL
  TBIL: 0.018 mg/dL
  TC: 72.6 mg/dL
  TG: 74.4 mg/dL
  TP: 5.4 g/dL
  gamma-GTP: 1.8 IU/L
100 mg/kg, 6 h, dose level Low
  TERMINAL_BW: 222.5 g
  APTT: 21.1 s
  Bas: 0%
  Eos: 0.8%
  Fbg: 318 mg/dL
  Hb: 13.5 g/dL
  Ht: 39.8%
  Lym: 78.8%
  MCH: 21.8 pg
  MCHC: 33.9%
  MCV: 64.2 fL
  Mono: 2.8%
  Neu: 16%
  PT: 15.8 s
  Plat: 119.6 x10_4/uL
  RBC: 620.4 x10_4/ul
  Ret: 7.4%
  WBC: 92.6 x10_2/uL
  KIDNEY_L: 1 g
  KIDNEY_R: 1.1 g
  KIDNEY_TOTAL: 2.1 g
  LIVER: 10.2 g
  A/G: 1.2
  ALP: 1476.2 IU/L
  ALT: 45.6 IU/L
  AST: 77 IU/L
  BUN: 12.6 mg/dL
  CRE: 0.2 mg/dL
  Ca: 10.3 mg/dL
  Cl: 106.6 meq/L
  DBIL: 0 mg/dL
  GLC: 180.4 mg/dL
  IP: 9.2 mg/dL
  K: 4.3 meq/L
  LDH: 191.6 IU/L
  Na: 140 meq/L
  PL: 128.6 mg/dL
  RALB: 2.9 g/dL
  TBIL: 0.02 mg/dL
  TC: 72.8 mg/dL
  TG: 54.6 mg/dL
  TP: 5.3 g/dL
  gamma-GTP: 1.8 IU/L
100 mg/kg, 9 h, dose level Low
  TERMINAL_BW: 224.5 g
  APTT: 22.3 s
  Bas: 0%
  Eos: 1%
  Fbg: 293.4 mg/dL
  Hb: 13.3 g/dL
  Ht: 38.9%
  Lym: 80%
  MCH: 21.8 pg
  MCHC: 34.2%
  MCV: 63.6 fL
  Mono: 2.2%
  Neu: 15.6%
  PT: 16.2 s
  Plat: 116.9 x10_4/uL
  RBC: 613 x10_4/ul
  Ret: 8%
  WBC: 92.7 x10_2/uL
  KIDNEY_L: 1 g
  KIDNEY_R: 1 g
  KIDNEY_TOTAL: 2.1 g
  LIVER: 9.4 g
  A/G: 1.1
  ALP: 1292.4 IU/L
  ALT: 36.6 IU/L
  AST: 66.8 IU/L
  BUN: 10 mg/dL
  CRE: 0.2 mg/dL
  Ca: 10.1 mg/dL
  Cl: 106.6 meq/L
  DBIL: 0 mg/dL
  GLC: 186.2 mg/dL
  IP: 9 mg/dL
  K: 4.2 meq/L
  LDH: 143 IU/L
  Na: 140.2 meq/L
  PL: 128.2 mg/dL
  RALB: 2.9 g/dL
  TBIL: 0.02 mg/dL
  TC: 75.4 mg/dL
  TG: 59.2 mg/dL
  TP: 5.4 g/dL
  gamma-GTP: 1.8 IU/L
[5]
  TERMINAL_BW: 238.5 g
  APTT: 22.6 s
  Bas: 0%
  Eos: 0.6%
  Fbg: 333.2 mg/dL
  Hb: 13.4 g/dL
  Ht: 38.7%
  Lym: 82.4%
  MCH: 21.7 pg
  MCHC: 34.7%
  MCV: 62.7 fL
  Mono: 2.2%
  Neu: 14%
  PT: 15.9 s
  Plat: 119.4 x10_4/uL
  RBC: 618.4 x10_4/ul
  Ret: 7.6%
  WBC: 93.8 x10_2/uL
  KIDNEY_L: 1 g
  KIDNEY_R: 1.1 g
  KIDNEY_TOTAL: 2.1 g
  LIVER: 11.9 g
  A/G: 1.2
  ALP: 1636.2 IU/L
  ALT: 46.8 IU/L
  AST: 75.6 IU/L
  BUN: 17 mg/dL
  CRE: 0.1 mg/dL
  Ca: 10.7 mg/dL
  Cl: 106.6 meq/L
  DBIL: 0 mg/dL
  GLC: 186 mg/dL
  IP: 8.2 mg/dL
  K: 4.1 meq/L
  LDH: 129.2 IU/L
  Na: 141.8 meq/L
  PL: 157.6 mg/dL
  RALB: 3.1 g/dL
  TBIL: 0.012 mg/dL
  TC: 88.8 mg/dL
  TG: 87.4 mg/dL
  TP: 5.7 g/dL
  gamma-GTP: 2.2 IU/L
